“Also recorded” adds a separate entry of the source. Ends that are not written are not given here.

The test system of test [1] is leukocyte recruitment into the inflamed airpouch. Briefly: Mouse IL-1β air-pouch inflammation model (leukocyte migration). In kind it is in vivo. The conditions noted are these: for inhibition of leukocyte infiltration/recruitment in air-pouch model: mouse air-pouch. How it is done: FIG. 3A and FIG. 3B are a series of bar charts comparing the anti-inflammatory effects of three polypeptides (Pep57 (SEQ ID NO:12); Pep59 (SEQ ID NO:13) and Pep84 (SEQ ID NO:14)) of the present disclosure versus a vehicle-only control.
FIG. 3A and FIG. 3B are a series of bar charts comparing the anti-inflammatory effects of three polypeptides (Pep57 (SEQ ID NO: 12); Pep59 (SEQ ID NO: 13) and Pep84 (SEQ ID NO: 14)) of the present disclosure versus a vehicle-only control. Mice received 200 μl i.v. of saline+DMSO or a dose of 50 μg per animal of one of the three Ac2-26 derived peptides, immediately before the local injection of mouse IL-1β into 6-day-old airpouches. The extent of cell migration was determined 4 h later, following airpouch washing and staining of migrated cells with Gr1 marker. […] Data are mean±SEM of 5 mice per group. *P<0.05 vs. vehicle group (one way ANOVA).

For test [2], the target named is T1, FPR2 (Homo sapiens, UniProt P25090).
T1 sequence (P25090 1-351): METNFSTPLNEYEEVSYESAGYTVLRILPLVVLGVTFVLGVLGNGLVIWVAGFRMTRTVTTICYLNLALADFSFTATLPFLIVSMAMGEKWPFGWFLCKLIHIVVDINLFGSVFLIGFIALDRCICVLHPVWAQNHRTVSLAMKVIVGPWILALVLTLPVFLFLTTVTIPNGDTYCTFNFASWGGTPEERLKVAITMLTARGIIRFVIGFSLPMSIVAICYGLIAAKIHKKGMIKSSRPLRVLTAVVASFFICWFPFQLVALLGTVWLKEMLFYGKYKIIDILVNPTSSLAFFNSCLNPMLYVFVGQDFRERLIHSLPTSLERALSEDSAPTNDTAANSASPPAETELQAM
Briefly: FPR2 activation (ERK phosphorylation and intracellular calcium fluxes). Type of test: cell-based.

Test [3] relates to PMN interaction to an activated HUVEC monolayer. Briefly: Flow chamber assay: PMN interaction with activated HUVEC monolayer (capture, rolling, adhesion). Type of test: cell-based, human. The conditions noted are these: for inhibition of PMN/neutrophil-endothelium interactions in flow chamber: concentration not given; for inhibition of PMN interaction with HUVECs (capture, adhesion, rolling): 10 μM peptide, 10 min at 37° C., flow 8 min at 1 dyne/cm^2; for lowest concentration with activity on PMN-HUVEC interactions: flow chamber model. The text has this:
FIGS. 2A-2C are a series of charts reporting data from flow chamber analysis to determine the inhibitory capability of five polypeptides of the present disclosure (Pep57 (SEQ ID NO:12); Pep59 (SEQ ID NO:13), Pep60 (SEQ ID NO:15), Pep83 (SEQ ID NO:16) and Pep84 (SEQ ID NO:14)) and Ac-ANAX1(2-26)-OH to reduce PMN interaction to an activated HUVEC monolayer.
FIGS. 4A-4C are a series of bar charts reporting percent inhibition provided by three polypeptides (UGP022 (SEQ ID NO:5); UGP025 (SEQ ID NO:7) and UGP026 (SEQ ID NO:8)) of the present disclosure, at different concentrations, on three different parameters (capture—FIG. 4A; rolling—FIG. 4B; and adhesion—FIG. 4C).
FIGS. 2A-2C are a series of charts reporting data from flow chamber analysis to determine the inhibitory capability of five polypeptides (Pep57 (SEQ ID NO: 12); Pep59 (SEQ ID NO: 13), Pep60 (SEQ ID NO: 15), Pep83 (SEQ ID NO: 16) and Pep84 (SEQ ID NO: 14)) of the present disclosure and Ac-ANAX1(2-26)-OH to reduce PMN interaction to an activated HUVEC monolayer. PMNs (5×10^6) were incubated with 10 μM of the various peptides for 10 min at 37° C. The PMNs were then flowed for 8 min at 1 dyne/cm^2, prior to quantifying the degree of PMN interaction with the HUVECs, both as PMN capture (FIG. 2A), adhesion (FIG. 2B) and rolling (FIG. 2C). […] Data are mean±SEM of 3 independent experiments (with distinct PMN and HUVEC preparations); *=P<0.05 vs. CT group, data analyzed using one way ANOVA.
FIGS. 4A-4C make a direct comparison of the activities of UGP022 (SEQ ID NO:5), UGP025 (SEQ ID NO: 7) and UGP026 (SEQ ID NO: 8) in the flow chamber assay, presenting the degree of inhibition on the three parameters under analysis (capture (FIG. 4A); rolling (FIG. 4B) and adhesion (FIG. 4C)).

In another test the target is T2, FPR1 (Homo sapiens, UniProt P21462).
T2 sequence (P21462 1-350): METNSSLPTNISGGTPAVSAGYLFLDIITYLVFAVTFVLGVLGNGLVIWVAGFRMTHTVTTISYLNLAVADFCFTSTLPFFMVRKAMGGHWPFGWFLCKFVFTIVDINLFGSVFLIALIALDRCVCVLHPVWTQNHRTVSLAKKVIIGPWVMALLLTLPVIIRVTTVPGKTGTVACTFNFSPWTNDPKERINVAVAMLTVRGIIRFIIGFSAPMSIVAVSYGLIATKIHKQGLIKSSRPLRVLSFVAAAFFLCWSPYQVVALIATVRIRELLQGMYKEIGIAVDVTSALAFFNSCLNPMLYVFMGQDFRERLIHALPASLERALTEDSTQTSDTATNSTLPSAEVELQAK
Briefly: FPR1 activation (ERK phosphorylation and intracellular calcium fluxes). In kind it is cell-based.

Test [4] concerns the target T1, FPR2. Briefly: p-ERK activation in HEK-FPR2 cells (western blot, densitometry p-ERK vs t-ERK). Set-up: expressed in transfected cells; host or cells: HEK cells (HEK-FPR2). In kind it is cell-based. The conditions noted are these: for p-ERK activation through the FPR2 receptor: 10 μM peptide, 8 minutes, HEK-FPR2 cells. The text has this: FIG. 1A and FIG. 1B show western blotting analysis comparing p-ERK activation potency through the FPR2 receptor for five polypeptides of the present disclosure (Pep57 (SEQ ID NO:12); Pep59 (SEQ ID NO:13), Pep60 (SEQ ID NO:15), Pep83 (SEQ ID NO:16) and Pep84 (SEQ ID NO:14)) relative to Ac-ANAX1(2-26)-OH. FIG. 1A is a representative blot for p-ERK and t-ERK.
The experiments whose results are reported in FIG. 1A and FIG. 1B were directed to determining which of the five polypeptides tested (Pep57 (SEQ ID NO: 12); Pep59 (SEQ ID NO: 13), Pep60 (SEQ ID NO: 15), Pep83 (SEQ ID NO: 16) and Pep84 (SEQ ID NO: 14)) best activated the p-ERK through the FPR2 receptor, similar to Ac-ANAX1(2-26)-OH, the parent peptide. The HEK-FPR2 cells were co-incubated with 10 μM of the novel Ac2-26 peptides for 8 minutes following which the cell were lysed and resuspended in cell lysis solution. Then 100 ng of total protein were loaded on to 10% polyacrylamide gel. Following electrophoresis, transfer and blocking the membrane was first probed with an anti p-ERK antibody and then stripped and reprobed with and anti total ERK antibody. […] Data presented as mean and SEM of 3 distinct experiments with one way ANOVA employed for statistical analysis. (*=P<0.05 vs. CT).

The target of test [5] is T1, FPR2. Briefly: Binding affinity to FPR2.
[6] abbreviates: 50 μg per animal i.v., IL-1β, 4 h.

As for “ANXA1(2-50)-OH (AMVSEFLKQAWFIENEEQEYVQTVKSSKGGPGSAVSPYPTFNPSSDVAA-OH; ends and bridges not checked) [UGP024, 49 amino acids; amino acids 2-50 of human Annexin 1]”, the “inhibition of leukocyte infiltration/recruitment in air-pouch model” value in test [1] is “more potent than Ac-ANXA1(2-26)-OH and full length ANXA1; also recorded: possess anti-inflammatory activities in an in vivo assay of leukocyte recruitment”. The “activation of FPR2” value in the test with FPR2 [2] is “could activate both FPR1 and FPR2”. Besides, in test [3], the “inhibition of PMN/neutrophil-endothelium interactions in flow chamber” value is “more potent than Ac-ANXA1(2-26)-OH and full length ANXA1”. For the same substance, the “activation of FPR1” value with FPR1 was “could activate both FPR1 and FPR2”.
For “Ile11,22-Ac-ANAX1(2-26)-OH (Ac-AMVSEFLKQIWFIENEEQEYIQTVK-OH) [Pep83, 25 amino acids; Annexin 1 (2-26), residues 10 and 21 isoleucine, residue 1 acetylated]”, in test [3], the “inhibition of PMN interaction with HUVECs (capture, adhesion, rolling)” value (from here on “inhibition of PMN interaction”) was “only Pep57 (SEQ ID NO: 12), Pep60 (SEQ ID NO: 15) and Pep84 (SEQ ID NO: 14) display inhibitory properties”.
As for “Glu11,22-Ac-ANAX1(2-26)-OH (Ac-AMVSEFLKQEWFIENEEQEYEQTVK-OH) [Pep60, 25 amino acids; Annexin 1 (2-26), residues 10 and 21 glutamic acid, residue 1 acetylated]”, in test [3], the “inhibition of PMN interaction” value is recorded as “displayed potent inhibitory properties similar to those displayed by the parent Ac2-26 peptide”. For the same substance, the “p-ERK activation through the FPR2 receptor” value with FPR2 [4] is recorded as “not that effective to phosphorylate ERK”.
For “ANXA1(2-50) Gly51-OH (AMVSEFLKQAWFIENEEQEYVQTVKSSKGGPGSAVSPYPTFNPSSDVAAG-OH; ends and bridges not checked) [UGP021, 50 amino acids; amino acids 2-50 of human Annexin 1, position 50 of the polypeptide is glycine]”, the “inhibition of leukocyte infiltration/recruitment in air-pouch model” value in test [1] was “more potent than Ac-ANXA1(2-26)-OH and full length ANXA1; also recorded: possess anti-inflammatory activities in an in vivo assay of leukocyte recruitment”. In addition, the “activation of FPR2” value in the test with FPR2 [2] is “could activate both FPR1 and FPR2”. Further, the “inhibition of PMN/neutrophil-endothelium interactions in flow chamber” value in test [3] is “more potent than Ac-ANXA1(2-26)-OH and full length ANXA1”. In the test with FPR2 [5], the “binding affinity to FPR2” value was “binding affinity to the FPR2 in the nanomolar range”. In the test with FPR1, the “activation of FPR1” value is “could activate both FPR1 and FPR2”.
In the case of “Met11,22-Ac-ANAX1(2-26)-OH (Ac-AMVSEFLKQMWFIENEEQEYMQTVK-OH) [Pep84]”, the “migrated cell count in air-pouch (FIG. 3A)” value in test [1] (setting [6]) is recorded as “display anti-inflammatory properties”. Moreover, the “inhibition of leukocyte infiltration/recruitment in air-pouch model” value in test [1] was “inhibiting this inflammatory readout to a larger extent”. Besides, in test [3], the “inhibition of PMN interaction” value is listed as “displayed inhibitory properties similar to those observed in the parent Ac2-26 peptide”; the “inhibition of PMN/neutrophil-endothelium interactions in flow chamber” value is reported as “significantly inhibited PMN-HUVEC interactions”; the “lowest concentration with activity on PMN-HUVEC interactions” value is on record as 10 pM. Moreover, in the test with FPR2 [4], the “downstream signaling via the FPR family of receptors” value is reported as “lead to downstream signaling via the FPR family of receptors” and the “p-ERK activation through the FPR2 receptor” value was “p-ERK activated was observed to be highest”.
With “Asp11,22-Ac-ANAX1(2-26)-OH (Ac-AMVSEFLKQDWFIENEEQEYDQTVK-OH) [Pep59, 25 amino acids; Annexin 1 (2-26), residues 10 and 21 aspartic acid, residue 1 acetylated]”, the “inhibition of PMN interaction” value in test [3] is “did not display any inhibitory properties in this assay”. Moreover, in the test with FPR2 [4], the “downstream signaling via the FPR family of receptors” value was “lead to downstream signaling via the FPR family of receptors” and the “p-ERK activation through the FPR2 receptor” value was “p-ERK activated was observed to be highest; also recorded: very high p-ERK activation potential”.
On to “Leu11,22-Ac-ANAX1(2-26)-OH (Ac-AMVSEFLKQLWFIENEEQEYLQTVK-OH) [Pep57, 25 amino acids; Annexin 1 (2-26), residues 10 and 21 leucine, residue 1 acetylated]”, for which, in test [1] (setting [6]), the “GR1+ve cells in air-pouch (FIG. 3B)” value was “losing this observed effect” and the “migrated cell count in air-pouch (FIG. 3A)” value is “display anti-inflammatory properties”. Moreover, in test [1], the “inhibition of leukocyte infiltration/recruitment in air-pouch model” value is given as “significantly inhibiting leukocyte infiltration; also recorded: displayed inhibitory potential in the model”. In addition, in test [3], the “inhibition of PMN interaction” value was “displayed inhibitory properties similar to those observed in the parent Ac2-26 peptide”; the “inhibition of PMN/neutrophil-endothelium interactions in flow chamber” value was “significantly inhibited PMN-HUVEC interactions”; the “lowest concentration with activity on PMN-HUVEC interactions” value is 10 pM. Besides, in the test with FPR2 [4], the “downstream signaling via the FPR family of receptors” value is “lead to downstream signaling via the FPR family of receptors” and the “p-ERK activation through the FPR2 receptor” value was “p-ERK activated was observed to be highest”.
As to “Ac-ANAX1(2-26)-OH (Ac-AMVSEFLKQAWFIENEEQEYVQTVK-OH) [Ac2-26, parent peptide; mimics the 2nd to the 26th amino acids of the Annexin A1 N-terminal region, N-terminally acetylated, reference compound]”, the “inhibition of PMN interaction” value in test [3] is listed as “inhibitory properties”. Further, the “p-ERK activation through the FPR2 receptor” value with FPR2 [4] was “activation caused by the parent Ac2-26”.

The values above are taken from patent US10072055B2, “Anti-inflammatory pharmaceutical products” (Resother Pharma APS, priority 2011, dated 2018).
